Columns and labels:
[1] = target: Full length EN PA (influenza endonuclease) (Influenza A virus, UniProt P15659); assay: EN PA FRET inhibition assay; type: biochemical; details: 50 Nm FRET probe, mean of a minimum of two independent experiments, read-out: Potency (IC50 class)
[2] = tested on: Influenza strain A549_A/WSN/33 (H1N1); assay: Influenza antiviral assay (neuraminidase fluorescence readout in A549 or MDCK cells); type: cell-based; details: Influenza A virus, read-out: % Inhibition (EC50 class)

| SMILES | IC50 [1] [nM] | EC50 [2] [nM] |
| --- | --- | --- |
| CCCN1C[C@H](C(c2cccc(F)c2)c2cccc(F)c2)n2ncc(=O)c(OC(C)=O)c2C1=O (single isomer, unassigned) [Compound 1] | < 250 | < 20000 |
| CN1C[C@H]([C@@H](c2ccccc2)n2cc(C#CC3CC3)c(C#CC3CC3)n2)n2ncc(=O)c(O)c2C1=O (single isomer, unassigned) [Compound 13] | < 250 | < 20000 |
| CN1C[C@H]([C@@H](c2ccccc2)n2cc(C#CCO)c(C#CCO)n2)n2ncc(=O)c(O)c2C1=O (single isomer, unassigned) [Compound 14] | < 250 | < 20000 |
| CC(C)OC(=O)OCOc1c2n(ncc1=O)[C@@H](C(c1ccccc1)c1ccccc1)CN(C(C)C)C2=O [Compound 2] | ≥ 1000 | < 20000 |
| CC(=O)Oc1c2n(ncc1=O)[C@@H](C1c3cccc(F)c3CCc3c(F)cccc31)CN(C(C)C)C2=O [Compound 3] | < 250 | < 20000 |
| CC(C)N1C[C@H](C(c2ccccc2)c2ccccc2)n2ncc(=O)c(O[C@@H]3OC(C(=O)O)[C@@H](O)C(O)C3O)c2C1=O (stereo partly drawn) [Compound 4] | < 250 | < 20000 |
| CN1CC(C(c2ccccc2)c2cn(C)c3cc(F)ccc23)n2ncc(=O)c(O)c2C1=O (stereo not drawn) [Compound 5] | < 250 | < 20000 |
| CCn1cc([C@@H](c2ccccc2)[C@H]2CN(C)C(=O)c3c(O)c(=O)cnn32)c2ccc(Br)cc21 [Compound 6] | 250 to 1000 | < 20000 |
| CN1C[C@H]([C@@H](c2ccccc2)n2cc(I)c(I)n2)n2ncc(=O)c(O)c2C1=O [Compound 7] | < 250 | < 20000 |
| CN1C[C@H]([C@H](c2ccccc2)n2cc(I)c(I)n2)n2ncc(=O)c(O)c2C1=O [Compound 8] | < 250 | < 20000 |
| CC(C)N1C[C@H](C(c2cccs2)c2cccs2)n2ncc(=O)c(O)c2C1=O [Compound 9] | < 250 | < 20000 |
| O=C1NC[C@H](C(c2ccccc2)c2ccccc2)n2ncc(=O)c(O)c21 [Compound 10] | < 250 | < 20000 |
| C#Cc1cccc(C(c2cccc(C#C)c2)C2CN(C(C)C)C(=O)c3c(O)c(=O)cnn32)c1 (stereo not drawn) [Compound 11] | < 250 | < 20000 |
| CC#Cc1cn([C@@H](c2ccccc2)[C@H]2CN(C)C(=O)c3c(O)c(=O)cnn32)nc1C#CC [Compound 12] | 250 to 1000 | < 20000 |
| C#Cc1cccc([C@@H](c2ccccc2)[C@H]2CN(C(C)C)C(=O)c3c(O)c(=O)cnn32)c1 [Compound 15] | < 250 | < 20000 |
| C#Cc1cn([C@@H](c2ccccc2)[C@H]2CN(C)C(=O)c3c(O)c(=O)cnn32)nc1C#C [Compound 16] | < 250 | < 20000 |
| [2H]C([2H])([2H])C([2H])(N1C[C@H](C(c2ccccc2)c2ccccc2)n2ncc(=O)c(O)c2C1=O)C([2H])([2H])[2H] [Compound 17] | < 250 | < 20000 |
| CCCCN1C[C@H](C(c2ccccc2)c2ccccc2)n2ncc(=O)c(O)c2C1=O [Compound 18] | < 250 | < 20000 |
| CCCN1C[C@H](C2c3ccccc3CCc3ccccc32)n2ncc(=O)c(O)c2C1=O [Compound 19] | < 250 | < 20000 |
| CCCN1C[C@@H](C2c3ccccc3CCc3ccccc32)n2ncc(=O)c(O)c2C1=O [Compound 20] | 250 to 1000 | < 20000 |
| CCCN1C[C@H](C2c3cccc(F)c3CCc3c(F)cccc32)n2ncc(=O)c(O)c2C1=O [Compound 21] | < 250 | < 20000 |
| CCCN1C[C@@H](C2c3cccc(F)c3CCc3c(F)cccc32)n2ncc(=O)c(O)c2C1=O [Compound 22] | ≥ 1000 | < 20000 |
| CC(C)C(=O)Oc1c2n(ncc1=O)[C@@H](C1c3ccccc3CCc3ccccc31)CN(C(C)C)C2=O [Compound 23] | < 250 | < 20000 |
| CC(=O)Oc1c2n(ncc1=O)[C@@H](C1c3ccccc3CCc3ccccc31)CN(C(C)C)C2=O [Compound 24] | < 250 | < 20000 |
| CCCN1C[C@H](C2c3ccccc3CCc3ccccc32)n2ncc(=O)c(OC(C)=O)c2C1=O [Compound 25] | < 250 | < 20000 |
| CCCN1C[C@H](C2c3ccccc3CCc3ccccc32)n2ncc(=O)c(OC(=O)C(C)C)c2C1=O [Compound 26] | < 250 | < 20000 |

| SMILES | IC50 [1] [nM] | EC50 [2] [nM] |
| --- | --- | --- |
| CCN1C[C@H](C2c3ccccc3CCc3ccccc32)n2ncc(=O)c(OC(C)=O)c2C1=O [Compound 27] | < 250 | < 20000 |
| CCN1C[C@H](C2c3ccccc3CCc3ccccc32)n2ncc(=O)c(OC(=O)C(C)C)c2C1=O [Compound 28] | < 250 |  |
| CCCN1C[C@H](C2c3cccc(F)c3CCc3c(F)cccc32)n2ncc(=O)c(OC(C)=O)c2C1=O [Compound 29] | < 250 | < 20000 |
| CC(C)OC(=O)Oc1c2n(ncc1=O)[C@@H](C1c3cccc(F)c3CCc3c(F)cccc31)CN(C(C)C)C2=O [Compound 30] | < 250 | < 20000 |
| CC(C)COC(=O)Oc1c2n(ncc1=O)[C@@H](C1c3cccc(F)c3CCc3c(F)cccc31)CN(C(C)C)C2=O [Compound 31] | < 250 | < 20000 |
| CC(C)N1C[C@H]([C@@H](c2ccccc2)n2cc(C#CC3CC3)c(C#CC3CC3)n2)n2ncc(=O)c(O)c2C1=O [Compound 33] | 250 to 1000 | < 20000 |
| CC(C)N1C[C@H]([C@@H](c2ccccc2)n2cc(C#CCO)c(C#CCO)n2)n2ncc(=O)c(O)c2C1=O [Compound 34] | < 250 | < 20000 |
| CN1C[C@H]([C@H](c2ccccc2)n2cc(C#CC3CC3)c(C#CC3CC3)n2)n2ncc(=O)c(O)c2C1=O [Compound 35] | ≥ 1000 | < 20000 |
| CN1C[C@H]([C@H](c2ccccc2)n2cc(C#CCO)c(C#CCO)n2)n2ncc(=O)c(O)c2C1=O [Compound 36] | < 250 | < 20000 |
| Cc1cccc(C(c2cccc(C)c2)[C@H]2CN(C(C)C)C(=O)c3c(O)c(=O)cnn32)c1 [Compound 37] | < 250 | < 20000 |
| O=C1c2c(O)c(=O)cnn2[C@@H](C(c2ccccc2)c2ccccc2)CN1Cc1ccccc1 [Compound 38] | < 250 | < 20000 |
| CC(C)[C@H](N)C(=O)OCOc1c2n(ncc1=O)[C@@H](C1c3cccc(F)c3CCc3c(F)cccc31)CN(C(C)C)C2=O [Compound 39] | < 250 | < 20000 |
| CC(C)[C@H](N)C(=O)OCOc1c2n(ncc1=O)[C@@H](C1c3ccccc3CCc3ccccc31)CN(C(C)C)C2=O [Compound 40] | < 250 | < 20000 |
| CC(C)OC(=O)OCOc1c2n(ncc1=O)[C@@H](C1c3cccc(F)c3CCc3c(F)cccc31)CN(C(C)C)C2=O [Compound 41] | < 250 | < 20000 |
| CN1C[C@H]([C@H](c2ccccc2)n2cc(C#CC3(O)CCC3)c(C#CC3(O)CCC3)n2)n2ncc(=O)c(O)c2C1=O [Compound 46] | 250 to 1000 | 20000 to 100000 |
| CCn1cc([C@@H](c2ccccc2)[C@H]2CN(C)C(=O)c3c(O)c(=O)cnn32)c2ccc(CO)cc21 [Compound 48] | ≥ 1000 |  |
| CCn1cc([C@H](c2ccccc2)[C@H]2CN(C)C(=O)c3c(O)c(=O)cnn32)c2ccc(CO)cc21 [Compound 49] | ≥ 1000 |  |
| CCCN1C[C@H](C(c2cccc(Cl)c2)c2cccc(Cl)c2)n2ncc(=O)c(OC(C)=O)c2C1=O [Compound 54] | < 250 | < 20000 |
| CCCN1C[C@H](C2c3cccc(Cl)c3CCc3c(Cl)cccc32)n2ncc(=O)c(O)c2C1=O [Compound 99] | < 250 | < 20000 |
| CN1C[C@H](C2c3cccc(Cl)c3CCc3c(Cl)cccc32)n2ncc(=O)c(O)c2C1=O [Compound 100] | < 250 | < 20000 |
| CC(C)N1C[C@H](C2c3ccc(F)cc3CCc3cc(F)ccc32)n2ncc(=O)c(O)c2C1=O [Compound 101] | < 250 | < 20000 |
| CCCN1C[C@H](C2c3ccc(F)cc3CCc3cc(F)ccc32)n2ncc(=O)c(O)c2C1=O [Compound 102] | < 250 | < 20000 |
| CC(C)N1C[C@H](C2c3ccc(Cl)cc3CCc3cc(Cl)ccc32)n2ncc(=O)c(O)c2C1=O [Compound 103] | < 250 | < 20000 |
| CCCN1C[C@H](C2c3ccc(Cl)cc3CCc3cc(Cl)ccc32)n2ncc(=O)c(O)c2C1=O [Compound 104] | < 250 | < 20000 |
| CC(=O)Oc1c2n(ncc1=O)[C@@H](C(c1cccc(Cl)c1)c1cccc(Cl)c1)CN(C(C)C)C2=O [Compound 107] | < 250 | < 20000 |
